Test results reported in the supplement of paper PMC10307832.

Assays:
Assay in all cases: relative viability (nuclei count vs DMSO), 5 days (fraction); higher = more cells survive
ABC-1 = test system: ABC-1
Procedure, shortened: (§1)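 After 5 days of treatment, lung cancer cells in 1536-well plates were fixed and stained in a single step (final 0.05% Triton X-100, 1% formaldehyde, 1 ug/ml Hoechst) and their nuclei counted on 4× images. Treatment had been applied by pin tool the day after seeding as one drug alone or as a fixed anchor-drug dose with five library-drug doses (not always all listed) in √10 steps. Relative viability is the nuclei count of treated wells divided by that of vehicle wells, and values are medians of duplicate plates.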

H3255 = test system: H3255
Procedure, shortened: as §1

PC-14 = test system: PC-14
Procedure, shortened: as §1

NCI-H1355 = test system: NCI-H1355
Procedure, shortened: as §1

NCI-H596 = test system: NCI-H596
Procedure, shortened: as §1

CAL-12T = test system: CAL-12T
Procedure, shortened: as §1

NCI-H1793 = test system: NCI-H1793
Procedure, shortened: as §1

NCI-H838 = test system: NCI-H838
Procedure, shortened: as §1

NCI-H2087 = test system: NCI-H2087
Procedure, shortened: as §1

NCI-H23 = test system: NCI-H23
Procedure, shortened: as §1

NCI-H727 = test system: NCI-H727
Procedure, shortened: as §1

NCI-H1792 = test system: NCI-H1792
Procedure, shortened: as §1

NCI-H1651 = test system: NCI-H1651
Procedure, shortened: as §1

NCI-H522 = test system: NCI-H522
Procedure, shortened: as §1

NCI-H358 = test system: NCI-H358
Procedure, shortened: as §1

NCI-H1666 = test system: NCI-H1666
Procedure, shortened: as §1

A-427 = test system: A-427
Procedure, shortened: as §1

NCI-H1437 = test system: NCI-H1437
Procedure, shortened: as §1

Structure (SMILES): C=C1C(=O)O[C@@H](CCCCCCCC)[C@@H]1C(=O)O [C-75] + NC(=O)Nc1cc(-c2cccc(F)c2)sc1C(=O)N[C@H]1CCCNC1 [AZD7762] (partner 0.2 µM)
- relative viability (ABC-1; first compound 0.08 µM): 0.736
- relative viability (ABC-1; first compound 0.253 µM): 0.461
- relative viability (ABC-1; first compound 0.8 µM): 0.685
- relative viability (ABC-1; first compound 2.53 µM): 0.672
- relative viability (ABC-1; first compound 8 µM): 0.775
- relative viability (H3255; first compound 0.08 µM): 0.847
- relative viability (H3255; first compound 0.253 µM): 0.893
- relative viability (H3255; first compound 0.8 µM): 0.774
- relative viability (H3255; first compound 2.53 µM): 0.885
- relative viability (H3255; first compound 8 µM): 0.865
- relative viability (PC-14; first compound 0.08 µM): 0.358
- relative viability (PC-14; first compound 0.8 µM): 0.243
- relative viability (PC-14; first compound 2.53 µM): 0.328
- relative viability (PC-14; first compound 8 µM): 0.319
- relative viability (NCI-H1355; first compound 0.08 µM): 0.742
- relative viability (NCI-H1355; first compound 0.253 µM): 0.831
- relative viability (NCI-H1355; first compound 0.8 µM): 0.738
- relative viability (NCI-H1355; first compound 2.53 µM): 0.663
- relative viability (NCI-H1355; first compound 8 µM): 0.764
- relative viability (NCI-H596; first compound 0.08 µM): 1.23
- relative viability (NCI-H596; first compound 0.253 µM): 1.12
- relative viability (NCI-H596; first compound 0.8 µM): 0.998
- relative viability (NCI-H596; first compound 2.53 µM): 0.975
- relative viability (NCI-H596; first compound 8 µM): 0.988
- relative viability (CAL-12T; first compound 0.08 µM): 0.683
- relative viability (CAL-12T; first compound 0.253 µM): 0.713
- relative viability (CAL-12T; first compound 0.8 µM): 0.586
- relative viability (CAL-12T; first compound 2.53 µM): 0.548
- relative viability (CAL-12T; first compound 8 µM): 0.64
- relative viability (NCI-H1793; first compound 0.08 µM): 0.478
- relative viability (NCI-H1793; first compound 0.253 µM): 0.645
- relative viability (NCI-H1793; first compound 2.53 µM): 0.293
- relative viability (NCI-H1793; first compound 8 µM): 0.854
- relative viability (NCI-H838; first compound 0.08 µM): 0.89
- relative viability (NCI-H838; first compound 0.253 µM): 0.752
- relative viability (NCI-H838; first compound 0.8 µM): 0.943
- relative viability (NCI-H838; first compound 2.53 µM): 0.865
- relative viability (NCI-H838; first compound 8 µM): 0.891
- relative viability (NCI-H2087; first compound 0.08 µM): 1.59
- relative viability (NCI-H2087; first compound 0.253 µM): 1.23
- relative viability (NCI-H2087; first compound 0.8 µM): 1.07
- relative viability (NCI-H2087; first compound 2.53 µM): 1.3
- relative viability (NCI-H2087; first compound 8 µM): 1.09
- relative viability (NCI-H23; first compound 0.08 µM): 0.255
- relative viability (NCI-H23; first compound 0.253 µM): 0.43
- relative viability (NCI-H23; first compound 0.8 µM): 0.263
- relative viability (NCI-H23; first compound 2.53 µM): 0.197
- relative viability (NCI-H23; first compound 8 µM): 0.376
- relative viability (NCI-H727; first compound 0.08 µM): 0.694
- relative viability (NCI-H727; first compound 0.253 µM): 0.906
- relative viability (NCI-H727; first compound 0.8 µM): 0.4
- relative viability (NCI-H727; first compound 2.53 µM): 0.587
- relative viability (NCI-H727; first compound 8 µM): 0.388
- relative viability (NCI-H1792; first compound 0.08 µM): 0.787
- relative viability (NCI-H1792; first compound 0.253 µM): 0.623
- relative viability (NCI-H1792; first compound 0.8 µM): 0.748
- relative viability (NCI-H1792; first compound 2.53 µM): 0.443
- relative viability (NCI-H1792; first compound 8 µM): 0.554
- relative viability (NCI-H1651; first compound 0.08 µM): 0.431
- relative viability (NCI-H1651; first compound 0.253 µM): 0.511
- relative viability (NCI-H1651; first compound 0.8 µM): 0.358
- relative viability (NCI-H1651; first compound 2.53 µM): 0.374
- relative viability (NCI-H1651; first compound 8 µM): 0.509
- relative viability (NCI-H522; first compound 0.08 µM): 0.851
- relative viability (NCI-H522; first compound 0.253 µM): 0.717
- relative viability (NCI-H522; first compound 0.8 µM): 0.846
- relative viability (NCI-H522; first compound 2.53 µM): 0.855
- relative viability (NCI-H522; first compound 8 µM): 0.727
- relative viability (NCI-H358; first compound 0.08 µM): 0.55
- relative viability (NCI-H358; first compound 0.253 µM): 0.531
- relative viability (NCI-H358; first compound 0.8 µM): 0.454
- relative viability (NCI-H358; first compound 2.53 µM): 0.456
- relative viability (NCI-H358; first compound 8 µM): 0.477
- relative viability (NCI-H1666; first compound 0.08 µM): 0.801
- relative viability (NCI-H1666; first compound 0.253 µM): 0.955
- relative viability (NCI-H1666; first compound 0.8 µM): 0.725
- relative viability (NCI-H1666; first compound 2.53 µM): 0.657
- relative viability (NCI-H1666; first compound 8 µM): 0.708
- relative viability (A-427; first compound 0.08 µM): 0.698
- relative viability (A-427; first compound 0.253 µM): 0.825
- relative viability (A-427; first compound 0.8 µM): 0.537
- relative viability (A-427; first compound 2.53 µM): 0.72
- relative viability (A-427; first compound 8 µM): 0.536
- relative viability (NCI-H1437; first compound 0.08 µM): 1.11
- relative viability (NCI-H1437; first compound 0.253 µM): 1.09
- relative viability (NCI-H1437; first compound 0.8 µM): 1.09
- relative viability (NCI-H1437; first compound 2.53 µM): 1.09
- relative viability (NCI-H1437; first compound 8 µM): 1.15
